# Data taken from PubChem BioAssay AID248 (DTP/NCI, 2004).
# Inconclusive results and toxic doses are left out.
# System: L1210 leukemia ip in BDF1 mice, survival T/C
# Assay: NCI In Vivo Anticancer Drug Screen. Data for tumor model L1210 Leukemia (intraperitoneal) in B6D2F1 (BDF1) mice
# Conditions: endpoint: mean survival time, higher = longer survival
# Procedure, shortened: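 Value reflects the ratio of survival in compound-treated mice to survival in vehicle-treated controls, with both groups carrying the same transplanted tumor.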
# [1] = dose: 100.0 mg/kg/injection, schedule: Q01DX001 (ip), vehicle: saline
# [2] = dose: 200.0 mg/kg/injection, schedule: Q01DX001 (ip), vehicle: saline
# [3] = dose: 400.0 mg/kg/injection, schedule: Q01DX001 (ip), vehicle: saline
# [4] = dose: 100.0 mg/kg/injection, schedule: Q04DX003 (ip), vehicle: saline with Tween-80
# [5] = dose: 200.0 mg/kg/injection, schedule: Q04DX003 (ip), vehicle: saline with Tween-80
# [6] = dose: 400.0 mg/kg/injection, schedule: Q04DX003 (ip), vehicle: saline with Tween-80
# [7] = dose: 100.0 mg/kg/injection, schedule: Q04DX003 (ip), vehicle: Klucel (hydroxypropylcellulose) (HPC)
# [8] = dose: 200.0 mg/kg/injection, schedule: Q04DX003 (ip), vehicle: Klucel (hydroxypropylcellulose) (HPC)
# [9] = dose: 100.0 mg/kg/injection, schedule: Q01DX009 (ip), vehicle: Klucel (hydroxypropylcellulose) (HPC)
# [10] = dose: 200.0 mg/kg/injection, schedule: Q01DX009 (ip), vehicle: Klucel (hydroxypropylcellulose) (HPC)
# [11] = dose: 400.0 mg/kg/injection, schedule: Q01DX009 (ip), vehicle: Klucel (hydroxypropylcellulose) (HPC)
# [12] = dose: 12.5 mg/kg/injection, schedule: Q01DX009 (ip), vehicle: saline
compound,measurement,setting,value
ClC1=CC2CCC1C21CC1 (stereo unspecified),T/C,"dose: 50.0 mg/kg/injection, schedule: Q01DX009 (ip), vehicle: saline with Tween-80",105 % of control
same,T/C,"dose: 100.0 mg/kg/injection, schedule: Q01DX005 (ip), vehicle: saline with Tween-80",92 % of control
same,T/C,"dose: 100.0 mg/kg/injection, schedule: Q01DX009 (ip), vehicle: saline with Tween-80",94 % of control
same,T/C,"dose: 100.0 mg/kg/injection, schedule: Q04DX002 (ip), vehicle: saline with Tween-80",87 % of control
same,T/C,"dose: 200.0 mg/kg/injection, schedule: Q01DX005 (ip), vehicle: saline with Tween-80",96 % of control
same,T/C,"dose: 200.0 mg/kg/injection, schedule: Q01DX009 (ip), vehicle: saline with Tween-80",97 % of control
same,T/C,"dose: 200.0 mg/kg/injection, schedule: Q04DX002 (ip), vehicle: saline with Tween-80",100 % of control
same,T/C,"dose: 400.0 mg/kg/injection, schedule: Q04DX002 (ip), vehicle: saline with Tween-80",103 % of control
O=C(NCCCl)NC1C(O)OC(CO)C(O)C1O (stereo unspecified),T/C,"dose: 25.0 mg/kg/injection, schedule: Q01DX009 (ip), vehicle: water",95 % of control
same,T/C,"dose: 50.0 mg/kg/injection, schedule: Q01DX009 (ip), vehicle: water",110 % of control
same,T/C,[1],97 % of control
same,T/C,"dose: 100.0 mg/kg/injection, schedule: Q01DX009 (ip), vehicle: water",105 % of control
same,T/C,[2],98 % of control
same,T/C,"dose: 200.0 mg/kg/injection, schedule: Q01DX009 (ip), vehicle: water",100 % of control
same,T/C,[3],96 % of control
same,T/C,"dose: 400.0 mg/kg/injection, schedule: Q01DX009 (ip), vehicle: water",97 % of control
NC(N)=N/N=C\CCC/C=N/N=C(N)N,T/C,"dose: 15.0 mg/kg/injection, schedule: Q01DX Z (ip), vehicle: saline",98 % of control
same,T/C,"dose: 30.0 mg/kg/injection, schedule: Q01DX Z (ip), vehicle: saline",97 % of control
same,T/C,"dose: 60.0 mg/kg/injection, schedule: Q01DX Z (ip), vehicle: saline",105 % of control
same,T/C,"dose: 60.0 mg/kg/injection, schedule: Q01DX Z (oral), vehicle: other",95 % of control
same,T/C,"dose: 120.0 mg/kg/injection, schedule: Q01DX Z (ip), vehicle: saline",94 % of control
same,T/C,"dose: 120.0 mg/kg/injection, schedule: Q01DX Z (oral), vehicle: other",100 % of control
same,T/C,"dose: 240.0 mg/kg/injection, schedule: Q01DX Z (oral), vehicle: other",97 % of control
same,T/C,"dose: 480.0 mg/kg/injection, schedule: Q01DX Z (oral), vehicle: other",102 % of control
O=C1OCC/C1=C\c1ccc2c(c1)OCO2,T/C,[4],105 % of control
same,T/C,[5],101 % of control
same,T/C,[6],90 % of control
Cc1cnc2no[n+]([O-])c2c1,T/C,[7],101 % of control
same,T/C,[8],102 % of control
CCCCCCCCCCCC(=O)O.[Cr],T/C,"dose: 100.0 mg/kg/injection, schedule: Q01DX009 (ip), vehicle: other",93 % of control
same,T/C,"dose: 100.0 mg/kg/injection, schedule: Q04DX003 (ip), vehicle: other",97 % of control
same,T/C,"dose: 200.0 mg/kg/injection, schedule: Q01DX009 (ip), vehicle: other",95 % of control
same,T/C,"dose: 200.0 mg/kg/injection, schedule: Q04DX003 (ip), vehicle: other",102 % of control
same,T/C,"dose: 400.0 mg/kg/injection, schedule: Q01DX009 (ip), vehicle: other",92 % of control
same,T/C,"dose: 400.0 mg/kg/injection, schedule: Q04DX003 (ip), vehicle: other",91 % of control
COC(=O)C1C(c2ccc(-c3ccccc3)cc2)N1C1CCCCC1 (stereo unspecified),T/C,"dose: 100.0 mg/kg/injection, schedule: Q01DX001 (ip), vehicle: Klucel (hydroxypropylcellulose) (HPC)",96 % of control
same,T/C,[7],104 % of control
same,T/C,"dose: 200.0 mg/kg/injection, schedule: Q01DX001 (ip), vehicle: Klucel (hydroxypropylcellulose) (HPC)",95 % of control
same,T/C,[8],107 % of control
same,T/C,"dose: 400.0 mg/kg/injection, schedule: Q01DX001 (ip), vehicle: Klucel (hydroxypropylcellulose) (HPC)",93 % of control
same,T/C,"dose: 400.0 mg/kg/injection, schedule: Q04DX003 (ip), vehicle: Klucel (hydroxypropylcellulose) (HPC)",98 % of control
COC(=O)CCC(=O)c1ccc(OC)cc1,T/C,[9],94 % of control
same,T/C,[10],100 % of control
same,T/C,[11],96 % of control
COC1OC(CO)C(O)C(N)C1O (stereo unspecified),T/C,"dose: 100.0 mg/kg/injection, schedule: Q04DX003 (ip), vehicle: saline",109 % of control
same,T/C,"dose: 200.0 mg/kg/injection, schedule: Q04DX003 (ip), vehicle: saline",98 % of control
O=Cc1ccc2c3c(cccc13)CC2,T/C,[1],96 % of control
same,T/C,[2],101 % of control
same,T/C,[3],100 % of control
C[N+]1(C)Cc2ccccc2-c2ccccc2C1,T/C,"dose: 12.0 mg/kg/injection, schedule: Q04DX003 (ip), vehicle: saline",121 % of control
same,T/C,[12],103 % of control
same,T/C,"dose: 25.0 mg/kg/injection, schedule: Q01DX009 (ip), vehicle: saline",111 % of control
same,T/C,"dose: 25.0 mg/kg/injection, schedule: Q04DX003 (ip), vehicle: saline",94 % of control
same,T/C,"dose: 50.0 mg/kg/injection, schedule: Q04DX003 (ip), vehicle: saline",106 % of control
CCOC(=O)Nc1cc(NCC(O)CN(C)c2ccccc2)c(N)c(NC(=O)OCC)n1 (stereo unspecified),T/C,"dose: 100.0 mg/kg/injection, schedule: Q01DX001 (ip), vehicle: carboxymethylcellulose (CMC)",87 % of control
same,T/C,"dose: 200.0 mg/kg/injection, schedule: Q01DX001 (ip), vehicle: carboxymethylcellulose (CMC)",87 % of control
same,T/C,"dose: 400.0 mg/kg/injection, schedule: Q01DX001 (ip), vehicle: carboxymethylcellulose (CMC)",92 % of control
O=NN(CCF)C(=O)NC1CCCCCCCCCCC1,T/C,"dose: 40.0 mg/kg/injection, schedule: Q01DX001 (ip), vehicle: other",108 % of control
same,T/C,"dose: 60.0 mg/kg/injection, schedule: Q01DX001 (ip), vehicle: other",112 % of control
COc1ccc2nc3ccccc3c(NCCCN(C)C)c2c1,T/C,"dose: 5.0 mg/kg/injection, schedule: Q01DX001 (ip), vehicle: saline",115 % of control
same,T/C,"dose: 10.0 mg/kg/injection, schedule: Q01DX001 (ip), vehicle: saline",115 % of control
same,T/C,"dose: 20.0 mg/kg/injection, schedule: Q01DX001 (ip), vehicle: saline",107 % of control
same,T/C,"dose: 40.0 mg/kg/injection, schedule: Q01DX001 (ip), vehicle: saline",106 % of control
Nc1cc(C(=O)Nc2cccc(C3=NCCCN3)c2)ccc1C(=O)Nc1cccc(C2=NCCCN2)c1,T/C,"dose: 0.17 mg/kg/injection, schedule: Q01DX Z (ip), vehicle: water",100 % of control
same,T/C,"dose: 0.34 mg/kg/injection, schedule: Q01DX Z (ip), vehicle: water",90 % of control
same,T/C,"dose: 0.68 mg/kg/injection, schedule: Q01DX Z (ip), vehicle: water",88 % of control
O=C(NCC(O)CNC(=O)Nc1ccc(C2=NCCN2)cc1)Nc1ccc(C2=NCCN2)cc1,T/C,"dose: 3.75 mg/kg/injection, schedule: Q01DX Z (ip), vehicle: carboxymethylcellulose (CMC)",97 % of control
same,T/C,"dose: 15.0 mg/kg/injection, schedule: Q01DX Z (ip), vehicle: carboxymethylcellulose (CMC)",244 % of control
same,T/C,"dose: 21.0 mg/kg/injection, schedule: Q01DX Z (ip), vehicle: carboxymethylcellulose (CMC)",216 % of control
same,T/C,"dose: 30.0 mg/kg/injection, schedule: Q01DX Z (ip), vehicle: carboxymethylcellulose (CMC)",164 % of control
same,T/C,"dose: 62.0 mg/kg/injection, schedule: Q01DX Z (oral), vehicle: carboxymethylcellulose (CMC)",110 % of control
same,T/C,"dose: 84.0 mg/kg/injection, schedule: Q01DX Z (ip), vehicle: carboxymethylcellulose (CMC)",104 % of control
same,T/C,"dose: 125.0 mg/kg/injection, schedule: Q01DX Z (oral), vehicle: carboxymethylcellulose (CMC)",108 % of control
same,T/C,"dose: 250.0 mg/kg/injection, schedule: Q01DX Z (oral), vehicle: carboxymethylcellulose (CMC)",104 % of control
same,T/C,"dose: 500.0 mg/kg/injection, schedule: Q01DX Z (oral), vehicle: carboxymethylcellulose (CMC)",97 % of control
Cc1ccccc1SC(=O)Nc1ccc([N+](=O)[O-])cc1Cl,T/C,[9],96 % of control
same,T/C,[10],94 % of control
same,T/C,[11],94 % of control
CN1CCCCC1CCN1c2ccccc2Sc2ccc(Br)cc21 (stereo unspecified),T/C,"dose: 3.12 mg/kg/injection, schedule: Q01DX009 (ip), vehicle: saline",105 % of control
same,T/C,"dose: 6.25 mg/kg/injection, schedule: Q01DX009 (ip), vehicle: saline",100 % of control
same,T/C,[12],101 % of control
CCCCCC1CCC(C(=O)O)CC1 (stereo unspecified),T/C,[4],88 % of control
same,T/C,[5],93 % of control
ClC(Cl)c1ccccc1,T/C,[4],98 % of control
same,T/C,[5],95 % of control
same,T/C,[6],87 % of control
